Measured values taken from publication PMC11562494 (BMC Chemistry, 2024).
≈ marks a conversion by molar mass, not a printed value. Where “and” joins values, the source holds several entries; their conditions need not be identical. Equal entries are not always repeated. Where two headings read alike, the source gives them in different places.

Assays:
S. cerevisiae = experiment: Broth dilution MIC/MFC; assay type: cell-based, Saccharomyces cerevisiae; conditions: for MFC / MIC: Saccharomyces cerevisiae; for MFC: read-out: MFC S. cerevisiae; for MIC: read-out: MIC S. cerevisiae
S. faecalis = experiment: Broth dilution MIC/MBC; assay type: cell-based, Streptococcus faecalis; conditions: for MBC / MIC: Enterococcus faecalis; for MBC: read-out: MBC S. faecalis; for MIC: read-out: MIC S. faecalis
E. cloacae = experiment: Broth dilution MIC/MBC; assay type: cell-based, Enterobacter cloacae; conditions: for MBC / MIC: Enterobacter cloacae; for MBC: read-out: MBC E. cloacae; for MIC: read-out: MIC E. cloacae
B. pumilus = experiment: Broth dilution MIC/MBC; assay type: cell-based, Bacillus pumilus; conditions: for MBC / MIC: Bacillus pumilus; for MBC: read-out: MBC B. pumilus; for MIC: read-out: MIC B. pumilus
C. albicans [1] = experiment: Broth dilution MIC/MFC; assay type: cell-based, Candida albicans; conditions: for MFC / MIC: Candida albicans; for MFC: read-out: MFC C. albicans; for MIC: read-out: MIC C. albicans, broth dilution; for MIC C. albicans: broth dilution
E. coli [2] = experiment: Broth dilution MIC/MBC; assay type: cell-based, Escherichia coli; conditions: for MBC / MIC: Escherichia coli; for MBC: read-out: MBC E. coli; for MIC: read-out: MIC E. coli
C. albicans [3] = conditions: cited from earlier work
E. coli [4] = experiment: Time-kill kinetic test; assay type: cell-based; conditions: 1x MIC
WI38 cells = experiment: In vitro cytotoxicity MTT assay; conditions: Homo sapiens, WI-38, 48 h, read-out: WI-38 IC50 ± SD
DNA gyrase A = DNA gyrase A (Escherichia coli, UniProt P0AES4); experiment: DNA gyrase supercoiling assay; assay type: biochemical; conditions: IC50 ± SD DNA gyrase A, E. coli DNA gyrase supercoiling
Escherichia coli = conditions: cited from earlier work

Row | Compound | MFC/ MIC ratio S. cerevisiae (S. cerevisiae) | MIC (S. cerevisiae) [µg/mL] | MBC/ MIC ratio S. faecalis (S. faecalis) | MIC (S. faecalis) [µg/mL] | MBC/ MIC ratio E. cloacae (E. cloacae) | MIC (E. cloacae) [µg/mL] | MBC/ MIC ratio B. pumilus (B. pumilus) | MIC (B. pumilus) [µg/mL] | MIC (C. albicans [1]) [µg/mL] | MBC/ MIC ratio E. coli (E. coli [2]) | MIC (E. coli [2]) [µg/mL] | MFC/ MIC ratio C. albicans (C. albicans [1]) | MFC (S. cerevisiae) [µg/mL] | MBC (S. faecalis) [µg/mL] | MBC (E. cloacae) [µg/mL] | MBC (B. pumilus) [µg/mL] | MFC (C. albicans [1]) [µg/mL] | MBC (E. coli [2]) [µg/mL] | other results
1 | Cc1c(C(N)=O)c(N)n(N)c(=O)c1C#N [Compound 3a, 1,2-diamino-5-cyano-4-methyl-6-oxo-1,6-dihydropyridine-3-carboxamide] | 4 | 31.3 (≈ 151 µM) | 4 | 7.81 (≈ 37.7 µM) | 8 | 3.91 (≈ 18.9 µM) | 4 | 31.3 (≈ 151 µM) |  | 4 | 15.6 (≈ 75.3 µM) | 4 | 125 (≈ 603 µM) | 31.3 (≈ 151 µM) | 31.3 (≈ 151 µM) | 125 (≈ 603 µM) | 500 (≈ 2410 µM) | 62.5 (≈ 302 µM) | 
2 | C[C@@H]1[C@H](O)[C@@H](C)/C=C/C=C/CC/C=C/C=C/C=C/C=C/C(O[C@H]2O[C@H](C)[C@@H](O)[C@H](N)[C@@H]2O)CC2O[C@](O)(CC(O)C(O)CCC(O)CC(O)CC(O)CC(=O)O[C@H]1C)CC(O)C2C(=O)O (some centres unmarked) [nystatin] |  |  |  |  |  |  |  |  |  |  |  |  |  |  |  |  |  |  | MIC C. albicans (C. albicans [3]): 1.95 µg/mL (≈ 2.11 µM)
3 | N#Cc1c(-c2ccc(OCc3ccccc3)cc2)c(C(N)=O)c(N)n(N)c1=O [Compound 3d, 1,2-diamino-4-(4-(benzyloxy)phenyl)-5-cyano-6-oxo-1,6-dihydropyridine-3-carboxamide] | 2 | 31.3 (≈ 83.4 µM) | 4 | 15.6 (≈ 41.6 µM) | 4 | 7.81 (≈ 20.8 µM) | 4 | 15.6 (≈ 41.6 µM) |  | 4 | 3.91 (≈ 10.4 µM) | 4 | 62.5 (≈ 166 µM) | 62.5 (≈ 166 µM) | 31.3 (≈ 83.4 µM) | 62.5 (≈ 166 µM) | 500 (≈ 1330 µM) | 15.6 (≈ 41.6 µM) | Time to bactericidal activity against E. coli (E. coli [4]): 90 to 120 min and 90 min; IC50 (WI38 cells): 48.8 ± 2.07 µM; IC50 (DNA gyrase A): 4.48 µM and 4.49 µM
4 | N#Cc1c(-c2ccc(Cl)cc2Cl)c(C(N)=O)c(N)n(N)c1=O [Compound 3b, 1,2-diamino-5-cyano-4-(2,4-dichlorophenyl)-6-oxo-1,6-dihydropyridine-3-carboxamide] | 2 | 125 (≈ 370 µM) | 2 | 31.3 (≈ 92.6 µM) | 4 | 31.3 (≈ 92.6 µM) | 2 | 15.6 (≈ 46.1 µM) | 62.5 (≈ 185 µM) | 4 | 7.81 (≈ 23.1 µM) | 2 | 250 (≈ 739 µM) | 62.5 (≈ 185 µM) | 125 (≈ 370 µM) | 31.3 (≈ 92.6 µM) | 125 (≈ 370 µM) | 31.3 (≈ 92.6 µM) | 
5 | CN(C)c1ccc(-c2c(C(N)=O)c(N)n(N)c(=O)c2C#N)cc1 [Compound 3c, 1,2-diamino-5-cyano-4-(4-(dimethylamino)phenyl)-6-oxo-1,6-dihydropyridine-3-carboxamide] | 4 | 31.3 (≈ 100 µM) | 2 | 62.5 (≈ 200 µM) | 2 | 62.5 (≈ 200 µM) | 4 | 15.6 (≈ 49.9 µM) | 31.3 (≈ 100 µM) | 4 | 15.6 (≈ 49.9 µM) | 2 | 125 (≈ 400 µM) | 125 (≈ 400 µM) | 125 (≈ 400 µM) | 62.5 (≈ 200 µM) | 125 (≈ 400 µM) | 62.5 (≈ 200 µM) | MIC C. albicans (C. albicans [1]): 62.5 µg/mL (≈ 200 µM)
6 | gentamycin [reference compound] |  |  |  |  |  |  |  |  |  |  |  |  |  |  |  |  |  |  | Time to bactericidal activity against E. coli (E. coli [4]): 90 to 120 min and 120 min
7 | CC1(C)S[C@@H]2[C@H](NC(=O)Cc3ccccc3)C(=O)N2[C@H]1C(=O)O [Pen. G, Penicillin G, reference compound] |  |  | 2 | 31.5 (≈ 94.2 µM) |  |  | 2 | 62.5 (≈ 187 µM) |  |  |  |  |  | 62.5 (≈ 187 µM) |  | 125 (≈ 374 µM) |  |  | 
8 | CC1COc2c(N3CCN(C)CC3)c(F)cc3c(=O)c(C(=O)O)cn1c23 (centres unmarked) [ofloxacin] |  |  |  |  |  |  |  |  |  |  |  |  |  |  |  |  |  |  | IZ E. coli (Escherichia coli): 24 mm
9 | CC(=O)N1CCN(c2ccc(OCC3COC(Cn4ccnc4)(c4ccc(Cl)cc4Cl)O3)cc2)CC1 (centres unmarked) [Keto., Ketoconazole, reference compound] |  | 1.95 (≈ 3.67 µM) |  |  |  |  |  |  | 1.95 (≈ 3.67 µM) |  |  |  | 15.6 (≈ 29.4 µM) |  |  |  | 31.3 (≈ 58.9 µM) |  | 

Now from value to compound, other results behind:

Row | MFC/ MIC ratio S. cerevisiae (S. cerevisiae) | MIC (S. cerevisiae) [µg/mL] | MBC/ MIC ratio S. faecalis (S. faecalis) | MIC (S. faecalis) [µg/mL] | MBC/ MIC ratio E. cloacae (E. cloacae) | MIC (E. cloacae) [µg/mL] | MBC/ MIC ratio B. pumilus (B. pumilus) | MIC (B. pumilus) [µg/mL] | MIC (C. albicans [1]) [µg/mL] | MBC/ MIC ratio E. coli (E. coli [2]) | MIC (E. coli [2]) [µg/mL] | MFC/ MIC ratio C. albicans (C. albicans [1]) | Compound | MFC (S. cerevisiae) [µg/mL] | MBC (S. faecalis) [µg/mL] | MBC (E. cloacae) [µg/mL] | MBC (B. pumilus) [µg/mL] | MFC (C. albicans [1]) [µg/mL] | MBC (E. coli [2]) [µg/mL] | other results
10 | 8 | 62.5 (≈ 280 µM) | 4 | 15.6 (≈ 69.9 µM) | 2 | 62.5 (≈ 280 µM) | 2 | 62.5 (≈ 280 µM) | 31.3 (≈ 140 µM) | 2 | 15.6 (≈ 69.9 µM) |  | Cc1c(C(N)=S)c(N)n(N)c(=O)c1C#N [Compound 4a, 1,2-diamino-5-cyano-4-methyl-6-oxo-1,6-dihydropyridine-3-carbothioamide] | 500 (≈ 2240 µM) | 62.5 (≈ 280 µM) | 125 (≈ 560 µM) | 125 (≈ 560 µM) | 62.5 (≈ 280 µM) | 31.3 (≈ 140 µM) | 
11 | 4 | 125 (≈ 353 µM) |  | 31.3 (≈ 88.4 µM) |  | 31.3 (≈ 88.4 µM) | 2 | 31.3 (≈ 88.4 µM) | 31.3 (≈ 88.4 µM) |  | 7.81 (≈ 22 µM) |  | N#Cc1c(-c2ccc(Cl)cc2Cl)c(C(N)=S)c(N)n(N)c1=O [Compound 4b, 1,2-diamino-5-cyano-4-(2,4-dichlorophenyl)-6-oxo-1,6-dihydropyridine-3-carbothioamide] | 500 (≈ 1410 µM) | 125 (≈ 353 µM) | 125 (≈ 353 µM) | 62.5 (≈ 176 µM) | 62.5 (≈ 176 µM) | 62.5 (≈ 176 µM) | 
12 | 2 | 62.5 (≈ 190 µM) | 4 | 7.81 (≈ 23.8 µM) | 4 | 62.5 (≈ 190 µM) | 2 | 62.5 (≈ 190 µM) | 15.6 (≈ 47.5 µM) | 4 | 31.3 (≈ 95.3 µM) | 4 | CN(C)c1ccc(-c2c(C(N)=S)c(N)n(N)c(=O)c2C#N)cc1 [Compound 4c, 1,2-diamino-5-cyano-4-(4-(dimethylamino)phenyl)-6-oxo-1,6-dihydropyridine-3-carbothioamide] | 125 (≈ 381 µM) | 31.3 (≈ 95.3 µM) | 250 (≈ 761 µM) | 125 (≈ 381 µM) | 62.5 (≈ 190 µM) | 125 (≈ 381 µM) | 
13 | 2 | 31.3 (≈ 80 µM) | 2 | 31.3 (≈ 80 µM) | 2 | 62.5 (≈ 160 µM) | 4 | 7.81 (≈ 20 µM) | 31.3 (≈ 80 µM) | 4 | 7.81 (≈ 20 µM) | 2 | N#Cc1c(-c2ccc(OCc3ccccc3)cc2)c(C(N)=S)c(N)n(N)c1=O [Compound 4d, 1,2-diamino-4-(4-(benzyloxy)phenyl)-5-cyano-6-oxo-1,6-dihydropyridine-3-carbothioamide] | 62.5 (≈ 160 µM) | 62.5 (≈ 160 µM) | 125 (≈ 319 µM) | 31.3 (≈ 80 µM) | 125 (≈ 319 µM) | 31.3 (≈ 80 µM) | MIC C. albicans (C. albicans [1]): 62.5 µg/mL (≈ 160 µM)
